From PMC4685510, “A Cell Biologist’s Field Guide to Aurora Kinase Inhibitors” (Frontiers in Oncology, 2015)

Key:
Test in all cases: biochemical
Type in all cases: biochemical
[1] = molecular target: 363 human kinases (including Aurora A/B/C) (Homo sapiens, UniProt Q16513); details: PKN2/PRK2; for remaining activity at 0.1 µM: 100 nM; for remaining activity at 0.1 µM / remaining activity at 0.5 µM: read-out: % Enzyme Activity (relative to DMSO controls)
Excerpt: (§1) However, the Aurora A/B selectivity ratios derived from our in vitro and in vivo data can be compared to prioritize inhibitors.

[2] = molecular target: T1, 363 human kinases (including Aurora A/B/C) (Homo sapiens, UniProt Q12852); details: DLK/MAP3K12, [ATP] 30 µM; for remaining activity at 0.1 µM: 100 nM; for remaining activity at 0.1 µM / remaining activity at 0.5 µM: read-out: % Enzyme Activity (relative to DMSO controls)
T1 sequence (Q12852 1-859): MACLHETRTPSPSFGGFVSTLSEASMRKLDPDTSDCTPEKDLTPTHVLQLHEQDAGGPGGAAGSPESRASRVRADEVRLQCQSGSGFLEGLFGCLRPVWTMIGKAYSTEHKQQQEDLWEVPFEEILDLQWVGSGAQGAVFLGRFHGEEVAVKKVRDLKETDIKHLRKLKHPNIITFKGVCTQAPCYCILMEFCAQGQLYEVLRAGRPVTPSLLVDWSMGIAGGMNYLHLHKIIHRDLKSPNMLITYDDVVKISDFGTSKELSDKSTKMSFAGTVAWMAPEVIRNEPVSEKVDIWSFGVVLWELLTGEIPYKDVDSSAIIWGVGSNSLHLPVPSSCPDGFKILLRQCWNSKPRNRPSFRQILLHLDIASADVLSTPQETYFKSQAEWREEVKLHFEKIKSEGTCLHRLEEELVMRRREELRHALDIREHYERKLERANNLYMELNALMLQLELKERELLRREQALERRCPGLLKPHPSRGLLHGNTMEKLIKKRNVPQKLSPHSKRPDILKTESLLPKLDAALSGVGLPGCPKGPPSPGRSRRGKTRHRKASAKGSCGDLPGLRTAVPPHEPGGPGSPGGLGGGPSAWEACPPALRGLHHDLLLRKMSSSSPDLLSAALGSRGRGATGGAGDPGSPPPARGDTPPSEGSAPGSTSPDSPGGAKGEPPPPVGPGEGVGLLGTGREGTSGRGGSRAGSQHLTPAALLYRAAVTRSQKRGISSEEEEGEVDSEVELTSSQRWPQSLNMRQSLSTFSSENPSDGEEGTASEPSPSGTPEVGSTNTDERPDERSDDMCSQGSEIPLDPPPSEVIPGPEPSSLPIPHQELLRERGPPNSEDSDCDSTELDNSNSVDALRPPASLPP
Excerpt: as §1

[3] = molecular target: 363 human kinases (including Aurora A/B/C) (Homo sapiens, UniProt P36894); details: ALK3/BMPR1A, [ATP] 1 µM; for remaining activity at 0.1 µM: 100 nM; for remaining activity at 0.1 µM / remaining activity at 0.5 µM: read-out: % Enzyme Activity (relative to DMSO controls)
Excerpt: as §1

[4] = molecular target: 363 human kinases (including Aurora A/B/C) (Homo sapiens, UniProt Q14289); details: PYK2; for remaining activity at 0.1 µM: 100 nM; for remaining activity at 0.1 µM / remaining activity at 0.5 µM: read-out: % Enzyme Activity (relative to DMSO controls)
Excerpt: as §1

[5] = molecular target: 363 human kinases (including Aurora A/B/C) (Homo sapiens, UniProt O15075); details: DCAMKL1, [ATP] 50 µM; for remaining activity at 0.1 µM: 100 nM; for remaining activity at 0.1 µM / remaining activity at 0.5 µM: read-out: % Enzyme Activity (relative to DMSO controls)
Excerpt: as §1

[6] = molecular target: T2, 363 human kinases (including Aurora A/B/C) (Homo sapiens, UniProt Q96PY6); details: NEK1; for remaining activity at 0.1 µM: 100 nM; for remaining activity at 0.1 µM / remaining activity at 0.5 µM: read-out: % Enzyme Activity (relative to DMSO controls)
T2 sequence (Q96PY6 1-1258): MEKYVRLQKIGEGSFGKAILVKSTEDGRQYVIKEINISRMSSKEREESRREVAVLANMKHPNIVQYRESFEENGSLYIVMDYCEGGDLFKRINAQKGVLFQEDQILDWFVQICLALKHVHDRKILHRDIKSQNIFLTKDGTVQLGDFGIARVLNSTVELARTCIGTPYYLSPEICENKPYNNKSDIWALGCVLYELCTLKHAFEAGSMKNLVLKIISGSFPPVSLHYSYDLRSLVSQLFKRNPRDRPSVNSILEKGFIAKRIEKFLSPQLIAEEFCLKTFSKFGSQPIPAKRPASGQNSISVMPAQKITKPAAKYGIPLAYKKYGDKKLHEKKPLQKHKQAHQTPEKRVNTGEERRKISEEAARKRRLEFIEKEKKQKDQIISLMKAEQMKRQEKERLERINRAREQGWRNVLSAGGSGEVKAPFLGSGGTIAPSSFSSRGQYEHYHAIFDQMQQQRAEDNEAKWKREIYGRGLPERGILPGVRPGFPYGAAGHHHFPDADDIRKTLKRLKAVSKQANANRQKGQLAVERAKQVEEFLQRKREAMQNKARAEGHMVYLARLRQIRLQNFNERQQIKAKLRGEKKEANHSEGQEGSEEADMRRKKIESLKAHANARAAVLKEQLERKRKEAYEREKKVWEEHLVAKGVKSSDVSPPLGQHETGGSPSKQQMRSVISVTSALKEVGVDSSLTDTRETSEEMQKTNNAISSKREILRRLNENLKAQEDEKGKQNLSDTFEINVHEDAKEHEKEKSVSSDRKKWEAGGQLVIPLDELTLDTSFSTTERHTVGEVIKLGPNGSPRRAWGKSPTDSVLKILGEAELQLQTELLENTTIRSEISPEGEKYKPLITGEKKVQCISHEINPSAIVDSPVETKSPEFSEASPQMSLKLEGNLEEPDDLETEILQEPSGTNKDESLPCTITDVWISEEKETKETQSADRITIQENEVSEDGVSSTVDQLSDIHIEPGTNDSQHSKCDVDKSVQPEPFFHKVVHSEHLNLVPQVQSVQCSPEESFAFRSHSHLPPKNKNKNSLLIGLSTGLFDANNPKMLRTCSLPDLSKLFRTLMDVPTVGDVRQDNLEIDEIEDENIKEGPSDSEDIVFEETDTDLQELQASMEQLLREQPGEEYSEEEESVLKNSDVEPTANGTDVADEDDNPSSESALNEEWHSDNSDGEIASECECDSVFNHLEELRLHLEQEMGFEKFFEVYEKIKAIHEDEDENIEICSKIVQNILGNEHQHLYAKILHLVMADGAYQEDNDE
Excerpt: as §1

Sequence of 363 human kinases (including Aurora A/B/C) (Homo sapiens, UniProt Q14289) (Q14289 whole entry): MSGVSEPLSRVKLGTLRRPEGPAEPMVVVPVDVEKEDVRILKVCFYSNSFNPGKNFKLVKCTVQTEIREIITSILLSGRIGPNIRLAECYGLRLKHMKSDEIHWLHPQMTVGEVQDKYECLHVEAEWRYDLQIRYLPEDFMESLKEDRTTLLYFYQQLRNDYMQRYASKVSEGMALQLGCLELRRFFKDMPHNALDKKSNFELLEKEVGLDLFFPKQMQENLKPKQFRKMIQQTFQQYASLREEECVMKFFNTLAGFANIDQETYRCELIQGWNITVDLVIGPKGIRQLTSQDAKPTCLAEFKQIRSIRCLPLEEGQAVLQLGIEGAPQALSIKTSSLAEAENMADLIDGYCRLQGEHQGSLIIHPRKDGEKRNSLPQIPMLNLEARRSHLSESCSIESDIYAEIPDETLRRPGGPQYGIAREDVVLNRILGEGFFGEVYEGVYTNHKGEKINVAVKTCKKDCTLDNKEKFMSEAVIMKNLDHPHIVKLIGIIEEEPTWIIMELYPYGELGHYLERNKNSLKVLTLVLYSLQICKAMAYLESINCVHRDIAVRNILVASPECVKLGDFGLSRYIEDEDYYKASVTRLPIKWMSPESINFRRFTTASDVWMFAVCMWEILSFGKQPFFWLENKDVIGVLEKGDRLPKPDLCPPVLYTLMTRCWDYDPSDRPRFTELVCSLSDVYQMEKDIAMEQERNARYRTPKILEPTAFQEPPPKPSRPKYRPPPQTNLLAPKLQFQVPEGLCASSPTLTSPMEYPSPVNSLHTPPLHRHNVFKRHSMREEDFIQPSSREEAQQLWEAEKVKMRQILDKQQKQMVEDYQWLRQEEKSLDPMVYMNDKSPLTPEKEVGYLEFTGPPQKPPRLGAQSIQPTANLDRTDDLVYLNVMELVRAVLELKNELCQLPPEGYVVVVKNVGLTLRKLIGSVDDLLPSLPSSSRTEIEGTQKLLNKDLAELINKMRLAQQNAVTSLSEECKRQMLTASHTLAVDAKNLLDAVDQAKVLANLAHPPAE
Sequence of 363 human kinases (including Aurora A/B/C) (Homo sapiens, UniProt P36894) (P36894 24-532): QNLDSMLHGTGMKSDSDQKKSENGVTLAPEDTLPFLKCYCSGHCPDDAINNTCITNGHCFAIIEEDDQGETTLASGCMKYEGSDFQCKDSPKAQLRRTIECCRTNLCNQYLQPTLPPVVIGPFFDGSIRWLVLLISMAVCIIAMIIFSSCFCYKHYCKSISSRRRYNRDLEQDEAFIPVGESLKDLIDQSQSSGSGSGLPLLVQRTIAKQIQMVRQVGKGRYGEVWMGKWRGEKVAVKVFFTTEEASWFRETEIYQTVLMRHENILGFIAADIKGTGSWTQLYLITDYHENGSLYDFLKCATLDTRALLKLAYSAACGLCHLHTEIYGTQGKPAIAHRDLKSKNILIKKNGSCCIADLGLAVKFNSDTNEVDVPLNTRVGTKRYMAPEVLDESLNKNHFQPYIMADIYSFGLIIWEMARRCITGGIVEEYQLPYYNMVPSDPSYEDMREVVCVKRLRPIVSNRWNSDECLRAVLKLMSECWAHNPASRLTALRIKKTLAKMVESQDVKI
Sequence of 363 human kinases (including Aurora A/B/C) (Homo sapiens, UniProt O15075) (O15075 whole entry): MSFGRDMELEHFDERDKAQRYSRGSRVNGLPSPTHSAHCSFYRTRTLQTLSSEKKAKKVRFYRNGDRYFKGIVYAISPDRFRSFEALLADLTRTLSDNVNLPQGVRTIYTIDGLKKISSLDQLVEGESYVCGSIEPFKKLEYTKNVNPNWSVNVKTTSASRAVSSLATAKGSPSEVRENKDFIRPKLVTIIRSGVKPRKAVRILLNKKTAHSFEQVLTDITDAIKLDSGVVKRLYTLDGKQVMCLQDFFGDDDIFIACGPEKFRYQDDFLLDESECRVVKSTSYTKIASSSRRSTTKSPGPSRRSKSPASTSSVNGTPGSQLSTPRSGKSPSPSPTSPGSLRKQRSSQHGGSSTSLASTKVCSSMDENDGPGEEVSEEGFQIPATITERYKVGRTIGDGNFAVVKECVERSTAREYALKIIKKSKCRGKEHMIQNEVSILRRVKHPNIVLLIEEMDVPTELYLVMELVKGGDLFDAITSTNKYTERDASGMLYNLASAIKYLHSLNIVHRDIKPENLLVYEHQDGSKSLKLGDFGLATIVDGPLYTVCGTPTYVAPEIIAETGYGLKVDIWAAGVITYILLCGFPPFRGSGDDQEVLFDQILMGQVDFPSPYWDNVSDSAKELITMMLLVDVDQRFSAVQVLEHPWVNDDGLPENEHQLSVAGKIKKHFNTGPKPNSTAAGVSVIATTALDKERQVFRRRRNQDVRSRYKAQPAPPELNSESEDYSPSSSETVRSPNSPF
Sequence of 363 human kinases (including Aurora A/B/C) (Homo sapiens, UniProt Q16513) (Q16513 whole entry): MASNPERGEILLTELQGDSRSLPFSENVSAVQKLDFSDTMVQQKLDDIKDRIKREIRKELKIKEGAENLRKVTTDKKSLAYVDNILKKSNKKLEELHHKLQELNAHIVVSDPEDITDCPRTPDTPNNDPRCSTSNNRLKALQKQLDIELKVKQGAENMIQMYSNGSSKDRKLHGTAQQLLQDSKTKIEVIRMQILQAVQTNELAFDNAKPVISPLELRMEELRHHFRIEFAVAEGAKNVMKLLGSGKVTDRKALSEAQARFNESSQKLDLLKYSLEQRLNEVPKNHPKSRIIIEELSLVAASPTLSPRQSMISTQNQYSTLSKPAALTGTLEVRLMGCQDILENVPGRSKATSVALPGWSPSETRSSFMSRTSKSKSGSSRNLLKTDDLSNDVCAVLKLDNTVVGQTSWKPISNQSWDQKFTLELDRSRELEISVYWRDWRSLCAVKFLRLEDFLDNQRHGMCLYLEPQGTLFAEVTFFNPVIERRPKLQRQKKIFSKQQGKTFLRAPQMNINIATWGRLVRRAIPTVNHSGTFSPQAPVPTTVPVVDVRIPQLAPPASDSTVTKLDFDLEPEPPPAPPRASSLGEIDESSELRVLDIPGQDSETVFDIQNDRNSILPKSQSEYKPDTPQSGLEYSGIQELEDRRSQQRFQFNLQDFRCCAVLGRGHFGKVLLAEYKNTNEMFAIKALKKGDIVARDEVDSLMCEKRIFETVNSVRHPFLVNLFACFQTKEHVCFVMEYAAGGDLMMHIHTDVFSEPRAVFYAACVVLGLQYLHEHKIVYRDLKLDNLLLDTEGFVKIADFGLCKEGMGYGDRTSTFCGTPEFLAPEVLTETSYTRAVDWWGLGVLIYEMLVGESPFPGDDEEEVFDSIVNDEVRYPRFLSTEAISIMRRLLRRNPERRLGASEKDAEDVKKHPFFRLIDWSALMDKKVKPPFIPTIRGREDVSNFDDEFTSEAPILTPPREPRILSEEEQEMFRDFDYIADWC

Row | SMILES | remaining activity at 0.1 µM [1] [%] | remaining activity at 0.1 µM [2] [%] | remaining activity at 0.1 µM [3] [%] | remaining activity at 0.1 µM [4] [%] | remaining activity at 0.1 µM [5] [%] | remaining activity at 0.1 µM [6] [%] | remaining activity at 0.5 µM ([1]; 500 nM) [%] | remaining activity at 0.5 µM ([2]; 500 nM) [%] | remaining activity at 0.5 µM ([3]; 500 nM) [%] | remaining activity at 0.5 µM ([4]; 500 nM) [%] | remaining activity at 0.5 µM ([5]; 500 nM) [%] | remaining activity at 0.5 µM ([6]; 500 nM) [%] | % Enzyme Activity (relative to DMSO controls) ([1]; 500 nM) [%] | % Enzyme Activity (relative to DMSO controls) ([2]; 500 nM) [%] | % Enzyme Activity (relative to DMSO controls) ([3]; 500 nM) [%] | % Enzyme Activity (relative to DMSO controls) ([4]; 500 nM) [%] | % Enzyme Activity (relative to DMSO controls) ([5]; 500 nM) [%] | % Enzyme Activity (relative to DMSO controls) ([6]; 500 nM) [%]
1 | CCn1cc(-c2ccnc3[nH]c(-c4cccc(CN(C)C)c4)cc23)c(-c2ccc(NC(=O)N(C)C)cc2)n1 [GSK1070916] | 115 | 80.4 | 87.6 | 95.3 | 114 | 101 | – | – | – | – | – | – | – | – | – | – | – | –
2 | O=C(O)[C@]1(Cc2cccc(Nc3nccs3)n2)CC[C@@H](Oc2cccc(Cl)c2F)CC1 [MK-5108] | 108 | 72.1 | 64.3 | 41.2 | 108 | 101 | 108 | 23.1 | 49.6 | 16.4 | 131 | 103 | – | – | – | – | – | –
3 | O=C(c1cccc(Cl)c1F)N1CCN(Cc2cccc(Nc3nccs3)n2)CC1 [MK-8745] | – | – | – | – | – | – | 104 | 59.2 | 84.6 | 83.5 | 142 | 97.9 | 103.16 | 53.85 | 83.31 | 80.17 | 138.94 | 94.59
